Results reported in patent US20060069157A1, “Method of ameliorating or abrogating the effects of a neurodegenerative disorder, such as Huntington's disease, by sodium butyrate chemotherapy” (U.S. DEPARTMENT OF VETERANS AFFAIRS, priority 2004, published 2006).
“Also recorded” adds a separate entry of the source.

Assays:
huntingtin transgene = assay: Transgene expression (Western blot, whole brain, 1C2 antibody); format: in vivo, mouse; conditions: 1.2 g/kg/d; R6/2 whole brain; vs PBS-treated R6/2
Protocol: Transgene Expression: Transgene expression was determined in whole brain by Western blot analysis of groups (n=6) of sodium butyrate-treated (1.2 g/kg/d) and untreated R6/2 mice. Brain tissue was homogenized in a protease inhibitor cocktail buffer (Complete, Roche). Twenty Êg of protein (supernatant fraction) was resolved on 10% SDS-polyacrylamide gel (BioRad), transferred to PVDF membrane (BioRad), and probed with 1C2 antibody (Euromedex, France) specific for regions of expanded huntingtin, using a horseradish conjugated anti-rabbit secondary antibody, followed by chemiluminescent detection (Western Lightening™, New England Nuclear), and run with parallel blots probed against (-tubulin to normalize for gel loading.

[1] = system: acetylated histone H3 and acetylated histone H4; assay: Histone acetylation assay (Western blot, whole brain); format: in vivo, mouse
Protocol: Histone Acetylation Assay: At 42 days, groups of 10 R6/2 mice and littermate wild-type control mice were treated with daily with the most optimal dose of sodium butyrate (1.2 g/kg), as determined by survival studies, or PBS via intraperitoneal injections for two weeks. The mice were euthanized at 56 days of age and the brains rapidly frozen and stored at −80 βC. Histone acetylation was determined, using a previously reported Western analysis method (Warrel et al., 1998). Histones were isolated from sodium butyrate treated and untreated whole brains. Western blot analysis for histone acetylation was performed using acetylated histone H3 and acetylated histone H4 antibodies (Upstate Biotechnology, Lake Placid, N.Y.). Protein levels were determined via Coomassie Protein Assay (Pierce, Rockford, Ill.). Each of the sample measurements was carried out twice, with the investigator performing the assays (JKK) blind to genotype and treatment group.

[2] = system: R6/2 transgenic mouse model of HD; assay: Rotarod motor performance in R6/2 mice; format: in vivo; conditions: at 90 days, vs PBS-treated R6/2 mice
Protocol: (§1) Intraperitoneal Dosing: Based upon previous studies (Egorin et al., 1999), a dose response study was performed, treating groups of wild type mice (n=10) and littermate R6/2 mice (n=20) with 100, 200, 400, 600, 1,200, 5,000, and 10,000 mg/kg daily intraperitoneal injection (100 Êl) of sodium butyrate (Acros Organics/Fisher Scientific) dissolved in PBS and made fresh daily. Control groups were treated with PBS injection or untreated. Approximately 240 mice were used for behavioral and survival analyses.
(§2) Clinical Assessment: Both motor performance and body weight were measured throughout the study. Training sessions were given on days 21 and 22 to acclimate the mice to the rotarod apparatus (Columbus Instruments, Columbus, Ohio). Motor performance (constant rotation at 16 rpm) was assessed weekly from 23-63 days of age and twice weekly from 63 days of age in the sodium butyrate-treated, PBS-treated R6/2 mice, and wild type littermate control mice. Three 60 sec trials were given during each session and averaged. Body weights were recorded twice weekly at the same time of day in all groups.
Statistics: The data are expressed as the mean+standard error of the mean. Statistical comparisons of rotarod, weight data, and histology data were compared by ANOVA or repeated measures ANOVA. Survival data was analyzed by the Kaplan-Meier survival curves.

Sp1 = Sp1 acetylation immunoprecipitation and Western blot analysis; format: in vivo, mouse; conditions: 1.2 g/kg/day i.p. for two weeks
Protocol: Sp1 Acetylation Immunoprecipitation and Western Blot Analysis: At 42 days of age, groups (n=6) of R6/2 mice were treated with daily 1.2 g/kg sodium butyrate or PBS intraperitoneal injections for two weeks. The mice were euthanized and tissue lysates were obtained by homogenizing each brain sample with 100 mM Tris (pH 7.4) buffer containing 1% Triton-X 100, 150 mM NaCl, 1 mM sodium orthovanadate, 5 mM sodium fluoride, 3 mM PMSF, 3 mM DTT, 0.5 Êg/ml leupeptin, and 10 Êg/ml aprotinin. To monitor Sp1 acetylation in vivo, tissue lysates were precleared by the addition of 30 Êl of protein A-sepharose (50% v/v slurry) for 1 hr at 4° C. and incubated with 2 Êg of Sp1 antibody for 2-4 hr. Twenty-five Êl of protein A-sepharose was added to lysates and left for 1 hr at […]. All beads were collected by centrifugation and washed twice with lysis buffer and once with PBS. The samples were boiled and divided into equal aliquots before separation on SDS-PAGE. Samples were electrophoresed under reducing conditions on 8% polyacrylamide gels. Proteins were then transferred to nitrocellulose membrane (BioRad, Hercules, Calif.). […] Proteins immunoreactive to acetyl lysine were detected by using an acetyl-lysine specific antibodies (Upstate Biotechnology, Lake Placid, N.Y., 1:1000 dilution). Immunoreactive proteins were detected according to an enhanced chemiluminescent protocol (Amersham, Piscataway, N.J.). […]

Body weight in R6/2 mice = format: in vivo, mouse; conditions: same plateau in PBS-treated mice
Protocol: as §1, §2

[3] = system: acetylated histone 3 and histone 4; assay: Immunocytochemistry of acetylated H3 and H4 in brain sections; format: in vivo, mouse; conditions: 1.2 g/kg/d i.p.; R6/2 mice at 90 days
Protocol: Neuropathological Evaluation of Sodium Butyrate Treatment: Beginning at 21 days, R6/2 transgenic mice and wild-type littermate control mice were treated daily with the most optimal dose of sodium butyrate (1.2 g/kg), as determined by survival studies, or PBS intraperitoneal injections. Groups of 10 animals from each treatment paradigm were deeply anesthetized and transcardially perfused with 4% buffered paraformaldehyde at 90 days of age. Forty mice were used for neuropathological analysis, as previously described (Ferrante et al., 2002). Serially cut tissue sections were stained for Nissl substance and immunostained for huntingtin (monoclonal huntingtin antibody, 1:1,000 dilution, Chemicon International Inc.) and for acetylated histone 3 and histone 4 (dilution, 1:1,000, Upstate Biotechnology, Lake Placid, N.Y.), using a previously reported conjugated secondary antibody method in murine brain tissue samples (Ferrante et al., 2002). Specificity for the antisera used in this study was examined in each immunochemical experiment to assist with the interpretation of the results. Preabsorption with excess target proteins, omission of the primary antibodies, and omission of secondary antibodies were performed to determine the amount of background generated from the detection assay.

## CCCC(=O)[O-].[Na+] [sodium butyrate]
Huntingtin transgene
  huntingtin transprotein expression-levels: no differences
[1]; 600 mg/kg/d vs 1.2 g/kg/d
  difference in increased acetylation of H3 and H4 between doses: did not observe any difference
[1]; 1.2 g/kg/d i.p. for two weeks from 42 days, R6/2 brain at 56 days
  H3 and H4 acetylation (Western blot): marked increase
[2]; 400 mg/kg
  percentile increase in rotarod performance: 24.0%
[2]; 600 mg/kg
  percentile increase in rotarod performance: 27.5%
[2]; 1,200 mg/kg
  percentile increase in rotarod performance: 34.9%
Sp1; R6/2 mice
  basal levels of Sp1: did not change
Sp1; R6/2 mice vs PBS
  Sp1 acetylation levels in brain: increased
Body weight in R6/2 mice
  body weight plateau until death: 19-20 gms
[3]
  H3 and H4 acetylation immunostaining in brain sections: increased acetylation of histone 4; also recorded: greatly enhanced
